Experimental data published in patent US20180369241A1, “TREATMENT OF CANCER WITH DNAPK INHIBITORS” (Celgene Corporation, priority 2015, published 2018).

How the values were obtained:
[1] = test system: LNCaP-AR-MDVR cells; experiment: Invasion and migration of enzalutamide-resistant LNCaP-AR cells, crystal violet quantification; format: cell-based
From the text: (§1) FIG. 4 provides: Expression of Wnt pathway genes after DNAPK knockdown (panel A) or inhibition (NU7441) (panel B) in LNCaP-AR cells; Immunoblot analyses of DNAPK, phospho-DNAPK (pDNAPK), active beta catenin (βcatenin), and cMyc levels in LNCaP-AR and C4-2 cells after DNAPK knockdown (siDNAPK) or inhibition (NU7441) with or without Wnt3A stimulation (panels C-D); Representative images (200×) and crystal violet quantification of LNCaP-AR and C4-2 cell invasion and migration after DNAPK inhibition (NU7441 or Compound 1) with or without Wnt3A stimulation (panel E); and Representative images (200×) and crystal violet quantification of enzalutamide-resistant LNCaP-AR (LNCaP-AR-enza-res) cell invasion and migration after DNAPK inhibition (NU7441 or Compound 1) or continued enzalutamide treatment (Enza) (panel F). All graphs are mean±S.D. *=p<0.05 compared to respective controls. Enza=enzalutamide. Enza-res=enzalutamide resistant. RQ=relative quantity. siNTC=non-targeting siRNA control.
FIG. 9 provides: Expression of Wnt pathway target genes in LNCaP-AR cells grown in enzalutamide until resistance (LNCaP-AR-enza-res) relative to LNCaP-AR cells grown in vehicle (DMSO) (panel A); and Expression of AR or AR-target genes FKBP5 and KLK3 (PSA) in LNCaP-AR-enza-res cells after treatment with 10 μM enzalutamide (panel B). GAPDH was used as internal reference, bars are mean±S.D. *=p<0.05. RQ=relative quantity.

[2] = test system: VCaP xenograft tumors; format: in vivo, mice
From the text: (§2) FIG. 10 provides: Body weight measurements of LNCaP-AR xenograft mice after treatment with NU7441 (panel A); Growth curves of VCaP xenograft tumors with various doses of Compound 1 (administered once daily via oral gavage, 5 times per week for 6 weeks) or vehicle (panel B); Body weight measurements of VCaP xenograft mice after treatment with various Compound 1 doses (panel C); and Growth curves of PC3 xenograft tumors treated with Compound 1 or vehicle (panel D). All graphs are mean±S.E.M. *=p<0.05 compared to vehicle.

[3] = test system: PC3 xenograft tumors; experiment: PC3 xenograft tumor growth; format: in vivo
From the text: as §2

[4] = test system: LNCaP-AR xenografts; format: in vivo; conditions: for median tumor tripling time: enzalutamide 10 mg/kg, Compound 1 2 mg/kg, vehicle 15 days
Description: (§3) FIG. 6 provides: Growth curves of LNCaP-AR xenografts in castrated mice treated daily with vehicle (black, n=5) or 25 mg/kg NU7441 (gray, n=6) (panel A); Fold change in final tumor volume (panel B); Kaplan-Meier curves of freedom from tumor doubling time with vehicle or NU7441 (25 mg/kg) treatment of LNCaP-AR xenograft tumors (panel C); Growth curves of LNCaP-AR xenograft tumors with 5 times weekly oral gavage enzalutamide (10 mg/kg, n=16), Compound 1 (2 mg/kg, n=14), Compound 1+enzalutamide (n=14), or vehicle (n=14) treatment. Bar graph represents change in final tumor volume compared to starting tumor volume (panel D); Kaplan-Meier curves of freedom from tumor tripling with enzalutamide, Compound 1, enzalutamide+Compound 1, or vehicle treatment of LNCaP-AR xenograft tumors (panel E); Expression of select Wnt pathway target genes in human primary prostate tumor explants treated with NU7441 (n=6) or vehicle (panel F); and Representative images of Ki67 immunostaining of human primary prostate tumor explants treated with NU7441 (n=6) or vehicle; Ki67-positive nuclei are indicated with arrows (panel G). All graphs are mean±S.E.M. *=p<0.05 compared to respective control, #=p<0.05 for enzalutamide compared to Compound 1+enzalutamide, **=p<0.01 for Compound 1 compared to vehicle.
as §2

[5] = test system: C4-2 cells; experiment: Boyden chamber migration and invasion assay, crystal violet quantification; format: cell-based
From the text: (§4) FIG. 2 provides: Representative images (200×) and crystal violet quantification of migration (panel A) and invasion (panel B) of C4-2, LNCaP-AR and PC3 cells in Boyden chamber assays after DNAPK knockdown (siRNA) or inhibition (NU7441); C4-2, LNCaP-AR and PC3 cell growth curves after DNAPK inhibition (NU7441) (panel C) or knockdown (siRNA) (panel D); and DNAPK knockdown by siRNA relative to non-targeting (siNTC) control (panel E). *p<0.05, […] compared to respective controls. All graphs are mean±S.D.
as §1

[6] = test system: LNCaP-AR cells; experiment: as above; format: cell-based
From the text: as §4, §1

[7] = test system: TOPFLASH reporter in PC3 cells; experiment: TOPFLASH luciferase reporter activity; format: cell-based; conditions: baseline and Wnt3A-induced, normalized to renilla luciferase
From the text: FIG. 5 provides: Immunoblot analyses of DNAPK, KU70 and LEF1 after DNAPK immunoprecipitation (left), and LEF1 and DNAPK after LEF1 immunoprecipitation (right) in LNCaP-AR cells (panel A); TOPFLASH luciferase reporter activity in PC3 cells after DNAPK inhibition (NU7441) and/or Wnt3A stimulation; activity is normalized to renilla luciferase (panel B); and Representative images (200×) and crystal violet quantification of LNCaP-AR and C4-2 cell invasion and migration after DNAPK, LEF1 or beta catenin (CTNNB1) knockdown by siRNA. *=p<0.05 compared to respective controls, #=p<0.05 compared to Wnt3A (panel C). All graphs are mean±S.D. siNTC=non targeting siRNA control.

[8] = test system: PC3 cells; experiment: Boyden chamber migration and invasion assay, crystal violet quantification; format: cell-based; conditions: PC3 cells (AR-negative)
From the text: as §4

[9] = test system: Wnt pathway genes in LNCaP-AR cells; experiment: Expression of Wnt pathway genes after DNAPK inhibition; format: cell-based
From the text: as §1

[10] = test system: active beta-catenin and cMyc in LNCaP-AR cells; experiment: Immunoblot of active beta catenin and cMyc with or without Wnt3A stimulation; format: cell-based; conditions: baseline and Wnt3A-induced
From the text: as §1

[11] = test system: active beta-catenin and cMyc in C4-2 cells; experiment: as above; format: cell-based; conditions: baseline and Wnt3A-induced
From the text: as §1

[12] = test system: Wnt pathway genes in C4-2 cells; experiment: Expression of Wnt pathway genes after DNAPK inhibition; format: cell-based
From the text: FIG. 8 provides: Expression of Wnt pathway genes in C4-2 cells after inhibition (NU7441) (panel A) or knockdown (panel B) of DNAPK; and Expression of Notch pathway genes in LNCaP-AR, PC3 and C4-2 cells after knockdown of DNAPK (panel C). GAPDH was used as internal reference, bars are mean±S.D. *=p<0.05. RQ=relative quantity.

[13] = test system: human primary prostate tumor explants; experiment: Human primary prostate tumor explants; conditions: human prostate cancer explants
Description: as §3

[14] = test system: C4-2 cells; experiment: Cell growth curves after DNAPK inhibition; format: cell-based
From the text: as §4

[15] = test system: PC3 cells; experiment: Cell growth curves after DNAPK inhibition; format: cell-based
From the text: as §4

[16] = test system: LNCaP-AR cells; experiment: Cell growth curves after DNAPK inhibition; format: cell-based
From the text: as §4

[17] = C4-2 (CRPC) cells, baseline and Wnt3A-induced
[18] = LNCaP-AR (CRPC) cells, baseline and Wnt3A-induced

## CCN1C(=O)CNc2ncc(-c3ccc(-c4nc[nH]n4)nc3C)nc21 [Compound 1, 1-ethyl-7-(2-methyl-6-(1H-1,2,4-triazol-3-yl)pyridin-3-yl)-3,4-dihydropyrazino[2,3-b]pyrazin-2(1H)-one]
[1]
  invasion: significantly reduced
  migration: significantly reduced
[2]; mouse, in vivo, 2 mg/kg
  toxicity (body weight): non-toxic
[2]; various doses, once daily oral gavage, 5 times per week for 6 weeks, best observed at 2 mg/kg
  tumor growth: dose-dependent reduction
[3]
  regression of AR-independent PC3 tumors: significant regression
[4]; 5 times weekly oral gavage
  median tumor tripling time: 29.5 days
[4]; pre-castrated conditions, 2 mg/kg, 5 times weekly oral gavage, comparator enzalutamide 10 mg/kg
  tumor regression: significantly better tumor regression compared to enzalutamide
[5]; [17]
  invasion: abrogated
  migration: abrogated
[6]; [18]
  invasion: abrogated
  migration: abrogated

## O=c1cc(N2CCOCC2)oc2c(-c3cccc4c3sc3ccccc34)cccc12 [NU7441]
[7]
  TOPFLASH reporter activity: significantly reduced
[1]
  invasion: significantly reduced
  migration: significantly reduced
[8]
  invasion: drastically diminished
  migration: drastically diminished
[9]
  Wnt pathway genes expression: robust reduction
[10]
  levels of active beta-catenin: reduced
  levels of cMyc: reduced
[11]
  levels of active beta-catenin: reduced
  levels of cMyc: reduced
[12]
  Wnt pathway genes expression: robust reduction
[13]
  Wnt target gene expression: marked reduction
  proliferative index, as determined by Ki67 levels: marked reduction
[4]; castrated mice, 25 mg/kg daily
  reduction in tumor growth compared to control: 44%
[4]; castrated mice, 25 mg/kg daily, fold change in final tumor volume, vehicle 8.57±1.45
  relative tumor volume: 4.84±1.97
[4]; castrated mice, 25 mg/kg daily, vehicle 7 days
  median tumor doubling time: 21.5 days
[4]; mouse, in vivo
  toxicity as measured by body weight: minimal
[14]
  proliferation: drastically diminished
[15]
  proliferation: drastically diminished
[16]
  proliferation: drastically diminished
[5]; [17]
  invasion: abrogated
  migration: abrogated
[5]; C4-2 cells (AR-positive)
  invasion: drastically diminished
  migration: drastically diminished
[6]; [18]
  invasion: abrogated
  migration: abrogated
[6]; LNCaP-AR cells (AR-positive)
  invasion: drastically diminished
  migration: drastically diminished

## CNC(=O)c1ccc(N2C(=S)N(c3ccc(C#N)c(C(F)(F)F)c3)C(=O)C2(C)C)cc1F [enzalutamide]
[4]; 5 times weekly oral gavage
  median tumor tripling time: 23.5 days
